Test results as given in ChEMBL document CHEMBL1201862, “PubChem BioAssay data set” (2004).
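In this assay, cells in 96-well plates receive the compound at five concentrations for 48 hours. Endpoints are linearly interpolated between the surrounding concentrations. The concentration for 50% growth inhibition is given as GI50.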 Active and inactive are the calls of the source. No stated cut-off is given here; in the data, active = GI50 up to about 1.1 µM and inactive = higher.

Columns and labels:
Experiment in all cases: NCI-60 cell line screen, 48 h
SNB-19 = system: SNB-19
NCI-H460 = system: NCI-H460
MOLT-4 = system: MOLT-4
A549 = system: A549
OVCAR-5 = system: OVCAR-5
DMS-273 = system: DMS-273
KM12 = system: KM12
UO-31 = system: UO-31
LXFL 529 = system: LXFL 529
COLO 205 = system: COLO 205
M14 = system: M14
OVCAR-3 = system: OVCAR-3
SF-539 = system: SF-539
HT-29 = system: HT-29
XF498 = system: XF498
IGROV-1 = system: IGROV-1
DMS-114 = system: DMS-114
SK-MEL-28 = system: SK-MEL-28
RPMI-8226 = system: RPMI-8226
HCC 2998 = system: HCC 2998
OVCAR-4 = system: OVCAR-4
SR = system: SR
UACC-257 = system: UACC-257
U-251 = system: U-251
HL-60 = system: HL-60
LOX IMVI = system: LOX IMVI
CCRF-CEM = system: CCRF-CEM
KM-20L2 = system: KM-20L2
TK-10 = system: TK-10
OVCAR-8 = system: OVCAR-8
SK-MEL-2 = system: SK-MEL-2
SK-OV-3 = system: SK-OV-3
RXF 393 = system: RXF 393
NCI-H23 = system: NCI-H23
RXF 631 = system: RXF 631
NCI-H226 = system: NCI-H226
ACHN = system: ACHN
SNB-75 = system: SNB-75
UACC-62 = system: UACC-62
CAKI-1 = system: CAKI-1
Malme-3M = system: Malme-3M
HCT-15 = system: HCT-15
SNB-78 = system: SNB-78
SN12C = system: SN12C
SF-295 = system: SF-295
HOP-62 = system: HOP-62
SK-MEL-5 = system: SK-MEL-5
SW-620 = system: SW-620
NCI-H522 = system: NCI-H522
EKVX = system: EKVX
HOP-92 = system: HOP-92
DLD-1 = system: DLD-1
K562 = system: K562
HCT-116 = system: HCT-116
786-0 = system: 786-0
M19-MEL = system: M19-MEL
SF-268 = system: SF-268
HOP-18 = system: HOP-18
A498 = system: A498

C[C@]12CCc3nonc3C1CC[C@@H]1C2CC[C@]2(C)C(=O)/C(=N\O)CC12 (some centres not stated)
GI50 (SNB-19): > 100 µM (inactive)
GI50 (NCI-H460): > 100 µM (inactive)
GI50 (MOLT-4): > 100 µM (inactive)
GI50 (A549): > 100 µM (inactive)
GI50 (OVCAR-5): > 100 µM (inactive)
GI50 (DMS-273): > 100 µM (inactive)
GI50 (KM12): > 100 µM (inactive)
GI50 (UO-31): > 100 µM (inactive)
GI50 (LXFL 529): 77.4 µM (inactive)
GI50 (COLO 205): 54.3 µM (inactive)
GI50 (M14): > 100 µM (inactive)
GI50 (OVCAR-3): > 100 µM (inactive)
GI50 (SF-539): > 100 µM (inactive)
GI50 (HT-29): > 100 µM (inactive)
GI50 (XF498): > 100 µM (inactive)
GI50 (IGROV-1): > 100 µM (inactive)
GI50 (DMS-114): > 100 µM (inactive)
GI50 (SK-MEL-28): > 100 µM (inactive)
GI50 (RPMI-8226): > 100 µM (inactive)
GI50 (HCC 2998): > 100 µM (inactive)
GI50 (OVCAR-4): 48.2 µM (inactive)
GI50 (SR): > 100 µM (inactive)
GI50 (UACC-257): > 100 µM (inactive)
GI50 (U-251): > 100 µM (inactive)
GI50 (HL-60): 1.03 µM (active)
GI50 (LOX IMVI): 46 µM (inactive)
GI50 (CCRF-CEM): > 100 µM (inactive)
GI50 (KM-20L2): > 100 µM (inactive)
GI50 (TK-10): > 100 µM (inactive)
GI50 (OVCAR-8): > 100 µM (inactive)
GI50 (SK-MEL-2): > 100 µM (inactive)
GI50 (SK-OV-3): > 100 µM (inactive)
GI50 (RXF 393): 3.87 µM (inactive)
GI50 (NCI-H23): > 100 µM (inactive)
GI50 (RXF 631): > 100 µM (inactive)
GI50 (NCI-H226): > 100 µM (inactive)
GI50 (ACHN): > 100 µM (inactive)
GI50 (SNB-75): 28.1 µM (inactive)
GI50 (UACC-62): > 100 µM (inactive)
GI50 (CAKI-1): > 100 µM (inactive)
GI50 (Malme-3M): > 100 µM (inactive)
GI50 (HCT-15): > 100 µM
GI50 (SNB-78): > 100 µM (inactive)
GI50 (SN12C): > 100 µM (inactive)
GI50 (SF-295): > 100 µM (inactive)
GI50 (HOP-62): > 100 µM (inactive)
GI50 (SK-MEL-5): > 100 µM (inactive)
GI50 (SW-620): > 100 µM (inactive)
GI50 (NCI-H522): 4.66 µM (inactive)
GI50 (EKVX): > 100 µM (inactive)
GI50 (HOP-92): > 100 µM (inactive)
GI50 (DLD-1): > 100 µM (inactive)
GI50 (K562): > 100 µM (inactive)
GI50 (HCT-116): > 100 µM (inactive)
GI50 (786-0): > 100 µM (inactive)
GI50 (M19-MEL): > 100 µM (inactive)
GI50 (SF-268): > 100 µM (inactive)
GI50 (HOP-18): > 100 µM (inactive)
GI50 (A498): > 100 µM (inactive)

C=C1C(=O)C23[C@H](O)C1CC[C@H]2[C@]12COC3(O)[C@@H](O)[C@@H]1C(C)(C)CC[C@@H]2O
GI50 (SNB-19): 18.5 µM (inactive)
GI50 (NCI-H460): 16 µM (inactive)
GI50 (MOLT-4): 3.27 µM (inactive)
GI50 (A549): 23.3 µM (inactive)
GI50 (OVCAR-5): 18.5 µM (inactive)
GI50 (DMS-273): 13.6 µM (inactive)
GI50 (KM12): 16.9 µM (inactive)
GI50 (UO-31): 15.4 µM (inactive)
GI50 (LXFL 529): 1.27 µM (inactive)
GI50 (COLO 205): 0.452 µM (active)
GI50 (M14): 5.57 µM (inactive)
GI50 (OVCAR-3): 14.8 µM (inactive)
GI50 (SF-539): 6.98 µM (inactive)
GI50 (HT-29): 14.4 µM (inactive)
GI50 (XF498): 3.46 µM (inactive)
GI50 (IGROV-1): 21.4 µM (inactive)
GI50 (DMS-114): 7.38 µM (inactive)
GI50 (SK-MEL-28): 2.72 µM (inactive)
GI50 (RPMI-8226): 4.08 µM (inactive)
GI50 (HCC 2998): 15.8 µM (inactive)
GI50 (OVCAR-4): 18 µM (inactive)
GI50 (SR): 1.34 µM (inactive)
GI50 (UACC-257): 15.5 µM (inactive)
GI50 (U-251): 6.04 µM (inactive)
GI50 (HL-60): 4.27 µM (inactive)
GI50 (LOX IMVI): 14.2 µM (inactive)
GI50 (CCRF-CEM): 3.03 µM (inactive)
GI50 (KM-20L2): 13.7 µM (inactive)
GI50 (TK-10): 17.2 µM (inactive)
GI50 (OVCAR-8): 13.4 µM (inactive)
GI50 (SK-MEL-2): 2.28 µM (inactive)
GI50 (SK-OV-3): 17.1 µM (inactive)
GI50 (RXF 393): 2.57 µM (inactive)
GI50 (NCI-H23): 13.5 µM (inactive)
GI50 (RXF 631): 10.1 µM (inactive)
GI50 (ACHN): 16.1 µM (inactive)
GI50 (SNB-75): 20.4 µM (inactive)
GI50 (UACC-62): 10.9 µM (inactive)
GI50 (CAKI-1): 1.98 µM (inactive)
GI50 (Malme-3M): 2.49 µM (inactive)
GI50 (HCT-15): 3.33 µM
GI50 (SNB-78): 3.44 µM (inactive)
GI50 (SN12C): 20.1 µM (inactive)
GI50 (SF-295): 17.6 µM (inactive)
GI50 (HOP-62): 20.6 µM (inactive)
GI50 (SK-MEL-5): 15.1 µM (inactive)
GI50 (SW-620): 1.84 µM (inactive)
GI50 (NCI-H522): 0.552 µM (active)
GI50 (EKVX): 19.7 µM (inactive)
GI50 (HOP-92): 3.95 µM (inactive)
GI50 (DLD-1): 11.3 µM (inactive)
GI50 (K562): 3.09 µM (inactive)
GI50 (HCT-116): 7.28 µM (inactive)
GI50 (786-0): 11 µM (inactive)
GI50 (M19-MEL): 12.9 µM (inactive)
GI50 (SF-268): 4.76 µM (inactive)
GI50 (HOP-18): 12.2 µM (inactive)
GI50 (A498): 9.1 µM (inactive)
